Measurements: US20180235904A1, “CANNABIDIOL COMPOSITIONS INCLUDING MIXTURES AND USES THEREOF” (EARTH SCIENCE TECH, INC., priority 2014, published 2018)

Test system: RAW264.7 macrophages
Experiment: Stimulation of macrophages, TNFα production (ELISA)
Format: cell-based, mouse
Conditions: 24 h
Method: RAW264.7, a mouse macrophage-like cell line, was used. The cells were cultured in DMEM, supplemented with 10% fetal calf serum (FCS), in 5% CO2, 95% air, at 37° C. in an humidified incubator.
The stimulation of macrophages was assessed by TNFα production, using a mouse TNFα ELISA kit.
To study the effects of hemp oil on macrophages, cells were seeded in a 24-well plate (2×10^5 cell/well) in 1-ml medium in each well for 12 h, and then incubated with hemp oil solution of different CBD concentrations (0-10 μM) for 24 h. Cell supernatant was collected for ELISA analysis.
After the macrophages were incubated with hemp oil of different CBD concentrations (0, 1, 2.5, 5, 10 μM), the TNFα production by the cells was detected.

C=C(C)[C@@H]1CCC(C)=C[C@H]1c1c(O)cc(CCCCC)cc1O [CBD, Cannabidiol]
TNFα production (CBD concentration of 10 μM): induced TNFα production at a significantly higher level
impact on macrophages (TNFα production) (CBD concentration range of 0 to 5 μM): not significant
